Where “and” joins values, the source holds several entries; their conditions need not be identical. Identical values can stand only once. Numbers after ± are expanded uncertainties.
How the values were obtained:
[1] = 298.15 K; 101.33 kPa; Liquid; Vibrating tube method
[2] = xn = mol fraction of the nth substance listed; conditions: 298.15 K, 101 kPa, Liquid, Vibrating tube method

Cc1ccccc1C [1,2-dimethylbenzene]
mass density [1]: 875.6 ± 0.5 kg/m3

CCCCC(CC)COP(=O)(O)OCC(CC)CCCC (stereo unspecified) [bis(2-ethylhexyl) hydrogen phosphate] + CCCCC(CC)COP(=O)([O-])OCC(CC)CCCC.CCCCC(CC)COP(=O)([O-])OCC(CC)CCCC.CCCCC(CC)COP(=O)([O-])OCC(CC)CCCC.[Dy+3]
mass density ([2]; x2 = 0): 971 ± 2 kg/m3

CCCCC(CC)COP(=O)(O)OCC(CC)CCCC (stereo unspecified) [bis(2-ethylhexyl) hydrogen phosphate] + CCCCC(CC)COP(=O)([O-])OCC(CC)CCCC.CCCCC(CC)COP(=O)([O-])OCC(CC)CCCC.CCCCC(CC)COP(=O)([O-])OCC(CC)CCCC.[Eu+3]
mass density ([2]; x2 = 0): 970.5 ± 2 kg/m3

CCCCC(CC)COP(=O)(O)OCC(CC)CCCC (stereo unspecified) [bis(2-ethylhexyl) hydrogen phosphate] + CCCCC(CC)COP(=O)([O-])OCC(CC)CCCC.CCCCC(CC)COP(=O)([O-])OCC(CC)CCCC.CCCCC(CC)COP(=O)([O-])OCC(CC)CCCC.[Gd+3]
mass density ([2]; x2 = 0): 970.5 ± 2 kg/m3

CCCCC(CC)COP(=O)(O)OCC(CC)CCCC (stereo unspecified) [bis(2-ethylhexyl) hydrogen phosphate] + CCCCC(CC)COP(=O)([O-])OCC(CC)CCCC.CCCCC(CC)COP(=O)([O-])OCC(CC)CCCC.CCCCC(CC)COP(=O)([O-])OCC(CC)CCCC.[Nd+3]
mass density ([2]; x2 = 0): 971 ± 2 kg/m3 and 969.1 ± 2 kg/m3 and 970.5 ± 2 kg/m3

CCCCC(CC)COP(=O)(O)OCC(CC)CCCC (stereo unspecified) [bis(2-ethylhexyl) hydrogen phosphate] + CCCCC(CC)COP(=O)([O-])OCC(CC)CCCC.CCCCC(CC)COP(=O)([O-])OCC(CC)CCCC.CCCCC(CC)COP(=O)([O-])OCC(CC)CCCC.[Sm+3]
mass density ([2]; x2 = 0): 971 ± 2 kg/m3 and 970.5 ± 2 kg/m3

CCCCC(CC)COP(=O)(O)OCC(CC)CCCC (stereo unspecified) [bis(2-ethylhexyl) hydrogen phosphate] + CCCCC(CC)COP(=O)([O-])OCC(CC)CCCC.CCCCC(CC)COP(=O)([O-])OCC(CC)CCCC.CCCCC(CC)COP(=O)([O-])OCC(CC)CCCC.[Tb+3]
mass density ([2]; x2 = 0): 970.5 ± 2 kg/m3

CCCCC(CC)COP(=O)(O)OCC(CC)CCCC (stereo unspecified) [bis(2-ethylhexyl) hydrogen phosphate] + Cc1ccccc1C
mass density ([2]; x2 = 0.5002): 946.2 ± 4 kg/m3 and 946.1 ± 4 kg/m3 | mass density ([2]; x2 = 0.5198): 944.7 ± 4 kg/m3 | mass density ([2]; x2 = 0.5201): 944.6 ± 4 kg/m3 | mass density ([2]; x2 = 0.7313): 924.4 ± 4 kg/m3 | mass density ([2]; x2 = 0.8195): 912.6 ± 4 kg/m3 and 912.4 ± 4 kg/m3 | mass density ([2]; x2 = 0.8197): 912.5 ± 4 kg/m3 | mass density ([2]; x2 = 0.8203): 912.4 ± 4 kg/m3 | mass density ([2]; x2 = 0.8204): 912.2 ± 4 kg/m3 | mass density ([2]; x2 = 0.9275): 893.2 ± 4 kg/m3 and 892.9 ± 4 kg/m3 | mass density ([2]; x2 = 0.9406): 890.1 ± 4 kg/m3 and 890.3 ± 4 kg/m3 and 890 ± 4 kg/m3 | mass density ([2]; x2 = 0.9759): 882 ± 4 kg/m3 | mass density ([2]; x2 = 0.976): 882 ± 4 kg/m3 and 881.9 ± 4 kg/m3 and 881.8 ± 4 kg/m3

CCCCC(CC)COP(=O)([O-])OCC(CC)CCCC.CCCCC(CC)COP(=O)([O-])OCC(CC)CCCC.CCCCC(CC)COP(=O)([O-])OCC(CC)CCCC.[Dy+3] (stereo unspecified) [dysprosium(III) bis(2-ethylhexyl) phosphate] + CCCCC(CC)COP(=O)(O)OCC(CC)CCCC
mass density ([2]; x1 = 0.0039): 973.1 ± 2 kg/m3 | mass density ([2]; x1 = 0.00883): 975.7 ± 2 kg/m3 | mass density ([2]; x1 = 0.02055): 981.6 ± 2 kg/m3 | mass density ([2]; x1 = 0.03494): 988.7 ± 2 kg/m3 | mass density ([2]; x1 = 0.04879): 995.1 ± 2 kg/m3

CCCCC(CC)COP(=O)([O-])OCC(CC)CCCC.CCCCC(CC)COP(=O)([O-])OCC(CC)CCCC.CCCCC(CC)COP(=O)([O-])OCC(CC)CCCC.[Eu+3] (stereo unspecified) [europium(III) bis(2-ethylhexyl) phosphate] + CCCCC(CC)COP(=O)(O)OCC(CC)CCCC
mass density ([2]; x1 = 0.01457): 977.5 ± 2 kg/m3 | mass density ([2]; x1 = 0.03221): 985.6 ± 2 kg/m3 | mass density ([2]; x1 = 0.04158): 989.9 ± 2 kg/m3 | mass density ([2]; x1 = 0.05518): 995.6 ± 2 kg/m3 | mass density ([2]; x1 = 0.07111): 1001.7 ± 2 kg/m3

CCCCC(CC)COP(=O)([O-])OCC(CC)CCCC.CCCCC(CC)COP(=O)([O-])OCC(CC)CCCC.CCCCC(CC)COP(=O)([O-])OCC(CC)CCCC.[Gd+3] (stereo unspecified) [gadolinium(III) bis(2-ethylhexyl) phosphate] + CCCCC(CC)COP(=O)(O)OCC(CC)CCCC
mass density ([2]; x1 = 0.01568): 978.4 ± 2 kg/m3 | mass density ([2]; x1 = 0.0349): 987.4 ± 2 kg/m3 | mass density ([2]; x1 = 0.04335): 991.2 ± 2 kg/m3 | mass density ([2]; x1 = 0.05925): 997.8 ± 2 kg/m3

CCCCC(CC)COP(=O)([O-])OCC(CC)CCCC.CCCCC(CC)COP(=O)([O-])OCC(CC)CCCC.CCCCC(CC)COP(=O)([O-])OCC(CC)CCCC.[Nd+3] (stereo unspecified) [neodymium(III) bis(2-ethylhexyl) phosphate] + CCCCC(CC)COP(=O)(O)OCC(CC)CCCC
mass density ([2]; x1 = 0.01187): 976.8 ± 2 kg/m3 | mass density ([2]; x1 = 0.01364): 975.7 ± 2 kg/m3 | mass density ([2]; x1 = 0.01427): 977.3 ± 2.1 kg/m3 | mass density ([2]; x1 = 0.02626): 981.7 ± 2.5 kg/m3 | mass density ([2]; x1 = 0.02653): 983.6 ± 2.5 kg/m3 | mass density ([2]; x1 = 0.02822): 983.8 ± 2 kg/m3 | mass density ([2]; x1 = 0.03921): 988.6 ± 2 kg/m3 | mass density ([2]; x1 = 0.0402): 987.6 ± 2 kg/m3 | mass density ([2]; x1 = 0.04214): 990.4 ± 2 kg/m3 | mass density ([2]; x1 = 0.04446): 991 ± 2 kg/m3 | mass density ([2]; x1 = 0.04708): 992.1 ± 2 kg/m3 | mass density ([2]; x1 = 0.04955): 991.6 ± 2 kg/m3 | mass density ([2]; x1 = 0.05317): 994.9 ± 2 kg/m3 | mass density ([2]; x1 = 0.0729): 1002.3 ± 2 kg/m3 | mass density ([2]; x1 = 0.07322): 1002.5 ± 2 kg/m3 | mass density ([2]; x1 = 0.07707): 1002.6 ± 2 kg/m3 | mass density ([2]; x1 = 0.0837): 1006.6 ± 2 kg/m3

CCCCC(CC)COP(=O)([O-])OCC(CC)CCCC.CCCCC(CC)COP(=O)([O-])OCC(CC)CCCC.CCCCC(CC)COP(=O)([O-])OCC(CC)CCCC.[Sm+3] (stereo unspecified) [samarium(III) bis(2-ethylhexyl) phosphate] + CCCCC(CC)COP(=O)(O)OCC(CC)CCCC
mass density ([2]; x1 = 0.00583): 974 ± 2 kg/m3 | mass density ([2]; x1 = 0.01288): 976.9 ± 2 kg/m3 | mass density ([2]; x1 = 0.01616): 978.9 ± 2 kg/m3 | mass density ([2]; x1 = 0.02646): 983.1 ± 2 kg/m3 | mass density ([2]; x1 = 0.03185): 986.2 ± 2 kg/m3 | mass density ([2]; x1 = 0.03372): 986.4 ± 2 kg/m3 | mass density ([2]; x1 = 0.05017): 993.9 ± 2 kg/m3 | mass density ([2]; x1 = 0.05958): 997.2 ± 2 kg/m3 | mass density ([2]; x1 = 0.06022): 998.2 ± 2 kg/m3 | mass density ([2]; x1 = 0.07053): 1001.8 ± 2 kg/m3

CCCCC(CC)COP(=O)([O-])OCC(CC)CCCC.CCCCC(CC)COP(=O)([O-])OCC(CC)CCCC.CCCCC(CC)COP(=O)([O-])OCC(CC)CCCC.[Tb+3] (stereo unspecified) [terbium(III) bis(2-ethylhexyl) phosphate] + CCCCC(CC)COP(=O)(O)OCC(CC)CCCC
mass density ([2]; x1 = 0.00621): 973.7 ± 2 kg/m3 | mass density ([2]; x1 = 0.0103): 975.8 ± 2 kg/m3 | mass density ([2]; x1 = 0.01167): 976.6 ± 2 kg/m3 | mass density ([2]; x1 = 0.01875): 980 ± 2 kg/m3 | mass density ([2]; x1 = 0.02771): 984.4 ± 2 kg/m3 | mass density ([2]; x1 = 0.04671): 993.3 ± 2 kg/m3
